Reference: patent US7432342B2, “Kinase anchor protein muteins, peptides thereof and related documents” (Sequenom, Inc., priority 2002, dated 2008)
Entries after “also recorded” stand apart in the source; their conditions may differ. Peptide text beside a SMILES is read from it. * marks the point of attachment. X1 = CN(C)c1ccc2c(c1)Oc1cc(N(C)C)ccc1C21OC(=O)c2cc(N3C(=O)CC(*)C3=O)ccc21

Key:
full-length RIIα = molecular target: T1, full-length RIIα (Mus musculus, UniProt P12367); assay: Fluorescence anisotropy binding assay (Example 9); parameters: species or system murine; conditions: compared with the unsubstituted peptide
T1 construct: Full-length murine RIIα was expressed in E. coli BL21 (DE3); made in house; host or cells: E. coli BL21 (DE3)
Description: (§1) Each peptide was fluorescently labeled using a 25 mM solution of tetramethylrhodamine-5-maleimide (catalog number T-6027; Molecular Probes, Eugene, Oreg.) dissolved in DMSO. The peptides were labeled by incubating with a three-fold molar excess of the label for 16 hr at 4° C. in 20 mM Tris, pH 7.0 and 1 mM tris-(2-carboxyethyl) phosphine, hydrochloride (TCEP) (non-thiol reducing agent, Molecular Probes). The sample was quenched with 1 mM, β-mercaptoethanol to bind to any unreacted maleimide and diluted with 0.1% TFA for purification by HPLC. The labeled peptides were resolved using a C18 column with a water/acetonitrile gradient containing 0.1% TFA. The concentration of each peptide was determined by absorbance at 541 nm after diluting into 100% methanol and using an extinction coefficient of 91,000 M^−1 cm^−1 for absorbance of the rhodamine label at 541 nm (Molecular Probes Catalog). The peptides were stored at 4° C. in 50% acetonitrile.
(§2) Full-length murine RIIα was expressed in E. coli BL21 (DE3). Full-length bovine RIα was expressed in E. coli 222. The proteins were purified as previously described using a cAMP affinity resin (Hamuro et al. (2002) J. Mol. Biol., 321:703). The protein concentrations were determined using the following extinction coefficients at 280 nm, which were calculated using a standard concentration of protein calibrated using quantitative amino acid analysis: RIα 52,603 M^−1 cm^−1 and RIIα 62,456 M^−1 cm^−1. The proteins were stored at 4° C. in 50 mM MES pH 5.8, 50 mM NaCl, 2 mM EDTA, 2 mM EGTA, 2 mM DTT.
(§3) Binding of each fluorescently labeled peptide to the regulatory subunits was monitored using fluorescence anisotropy. RIα and RIIα were serially diluted beginning at 1 μM and 0.1 μM, respectively, into 10 mM HEPES pH 7.4, 0.15 M NaCl, 3 mM EDTA, 0.005% Surfactant P20 (Biacore) containing either 10 nM or 1 nM of fluorescently labeled peptide for RIα and RIIα, respectively. The samples were equilibrated for at least 1 hour at room temperature and fluorescence anisotropy monitored using a Fluoromax-2 (Jobin Yvon Horiba, SPEX Division, Edison, N.J.) equipped with Glan-Thompson polarizers. The rhodamine-labeled peptide was excited at 541 nm (5-10 nm bandpass) and emission monitored at 575 nm (5-10 nm bandpass). The anisotropy was calculated directly with the Fluoromax software using the following equation: r=(IVV−G*IVH)/(IVV+2G*IVH) (1) where r is the steady state anisotropy, IVV is the fluorescence intensity with the excitation and emission polarizers oriented in the vertical position (0° from normal), IVH is the fluorescence intensity with the excitation polarizer in the vertical position and the emission polarizer oriented in the horizontal position (90°) relative to the excitation polarizer, G is the monochromator grating factor which is equal to (IHV/IHH), with the first subscript indicating the position of the excitation polarizer and the second subscript indicating position of the emission polarizer. Three separate binding experiments were averaged and fit to a 1:1 binding model using the non-linear regression application in GraphPad Prism version 3.00 (GraphPad Software, San Diego, Calif.).

GFP-RIIα = molecular target: T2, GFP-RIIα (Mus musculus, UniProt P12367); assay: Co-localization with mitochondria-targeted Flag-tagged AKB domain constructs in 10T(1/2) cells (Example 10); type: cell-based; conditions: mutations of Table 7 in AKB domain of C-terminal 156 residues of mouse D-AKAP2, mitochondria-targeted
T2 construct: Full-length bovine RIα and mouse RIIα were fused with green fluorescent protein (GFP) by subcloning into pEGFPN1; expressed in transfected cells; host or cells: 10T(1/2) cells
Description: (§4) To test the ability of the mutations set forth in Table 7 [AKB(dual), AKB(RI), AKB(RII) and AKB(null)] to co-localize with selected PKA isoforms in cells, a flag-tagged AKB domain construct targeted to the mitochondria was prepared using the AKB domain and a mitochondria targeting sequence from D-AKAP1 as set forth in Example 3. The respective mutations were then incorporated into the AKB domain of D-AKAP2 to test for selectivity in the cell. The targeting constructs of the AKB domain were made by fusing the C-terminal 156 residues of mouse D-AKAP2 with the N-terminal mitochondrial-targeting domain of D-AKAP1 (residues 1-30 of D-AKAP1a). After adding a flag tag to the C-terminus, the constructs were sub-cloned into the pCI vector (Promega, Madison, Wis.). The mutations of the AKB domain corresponding to those set forth in Table 7 herein were made with the QuickChange mutagenesis method (Makarova et al. (2000) Biotechniques, 29:970-972). Full-length bovine RIα and mouse RIIα were fused with green fluorescent protein (GFP) by subcloning into pEGFPN1 (Clontech, Palo Alto, Calif.). Equal amounts of the targeting constructs and either GFP-RIα or GFP-RIIα constructs were co-transfected into 10T(1/2) cells using Lipofectamin (Invitrogen, Carlsbad, Calif.). The AKB domain was detected by immuno-staining with monoclonal antibodies against the Flag-tag (Kodak, Rochester, N.Y.) followed by a rhodamine-conjugated secondary antibody (Jackson Lab, Bar Harbor, Me.). The cells were imaged using a radiance confocal microscope (BioRad, Hercules, Calif.).

full-length RIα = molecular target: T3, full-length RIα (Bos taurus, UniProt P00514); assay: Fluorescence anisotropy binding assay (Example 9); parameters: species or system bovine; conditions: compared with the unsubstituted peptide
T3 construct: Full-length bovine RIα was expressed in E. coli 222; made in house; host or cells: E. coli 222
Description: as §1, §2, §3

GFP-RIα = molecular target: T4, GFP-RIα (Bos taurus, UniProt P00514); assay: Co-localization with mitochondria-targeted Flag-tagged AKB domain constructs in 10T(1/2) cells (Example 10); type: cell-based, bovine; conditions: mutations of Table 7 in AKB domain of C-terminal 156 residues of mouse D-AKAP2, mitochondria-targeted
T4 construct: Full-length bovine RIα and mouse RIIα were fused with green fluorescent protein (GFP) by subcloning into pEGFPN1; expressed in transfected cells; host or cells: 10T(1/2) cells
Description: as §4

T2 sequence (P12367 whole entry, the tested form may be a part): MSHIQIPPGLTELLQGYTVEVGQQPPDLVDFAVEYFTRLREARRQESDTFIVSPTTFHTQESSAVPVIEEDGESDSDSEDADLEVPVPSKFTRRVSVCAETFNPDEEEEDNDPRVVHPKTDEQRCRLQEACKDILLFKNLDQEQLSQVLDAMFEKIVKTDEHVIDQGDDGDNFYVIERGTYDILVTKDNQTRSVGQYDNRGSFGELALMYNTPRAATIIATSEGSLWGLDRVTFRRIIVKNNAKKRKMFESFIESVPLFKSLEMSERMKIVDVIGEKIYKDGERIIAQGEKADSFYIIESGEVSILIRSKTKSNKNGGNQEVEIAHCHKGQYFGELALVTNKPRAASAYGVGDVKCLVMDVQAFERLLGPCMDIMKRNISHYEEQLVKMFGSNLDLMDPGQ
T1 sequence (P12367 whole entry): as the sequence (P12367 whole entry, the tested form may be a part) above
T3 sequence (P00514 whole entry): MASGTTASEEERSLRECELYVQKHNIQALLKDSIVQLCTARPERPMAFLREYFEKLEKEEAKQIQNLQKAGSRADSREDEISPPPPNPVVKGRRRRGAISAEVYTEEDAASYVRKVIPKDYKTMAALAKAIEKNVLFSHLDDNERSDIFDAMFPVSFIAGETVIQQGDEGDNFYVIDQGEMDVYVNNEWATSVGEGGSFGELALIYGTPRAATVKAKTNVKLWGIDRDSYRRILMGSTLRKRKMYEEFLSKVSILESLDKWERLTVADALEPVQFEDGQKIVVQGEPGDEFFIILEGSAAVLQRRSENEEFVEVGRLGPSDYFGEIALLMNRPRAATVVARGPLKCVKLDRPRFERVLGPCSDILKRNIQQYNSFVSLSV
T4 sequence (P00514 whole entry, the tested form may be a part): as the sequence (P00514 whole entry) above

Row | Structure (SMILES) | binding to RIIα, in words (full-length RIIα) | recruitment of GFP-RIIα to the mitochondria (GFP-RIIα) | binding to RIα, in words (full-length RIα) | recruitment of GFP-RIα to the mitochondria (GFP-RIα) | binding to RIIα, in words (full-length RIIα; listed as SEQ ID NO:103) | binding to RIα, in words (full-length RIα; listed as SEQ ID NO:103)
1 | CC[C@H](C)[C@H](NC(=O)[C@H](CCCCN)NC(=O)[C@H](Cc1c[nH]c2ccccc12)NC(=O)[C@H](C)NC(=O)[C@H](CC(C)C)NC(=O)[C@H](CCC(=O)O)NC(=O)[C@H](CCC(=O)O)NC(=O)[C@H](CCC(N)=O)NC(=O)[C@H](C)NC(=O)[C@H](CCC(=O)O)NC(=O)[C@H](CC(=O)O)NC(=O)[C@@H](NC(=O)[C@H](CC(N)=O)NC(=O)CNC(=O)[C@H](CCC(N)=O)NC(=O)[C@@H](N)C(C)C)[C@@H](C)O)C(=O)N[C@@H](CCC(=O)O)C(=O)N[C@@H](CCCCN)C(=O)N[C@@H](CCSC)C(=O)N[C@H](C(=O)N[C@@H](Cc1c[nH]c2ccccc12)C(=O)N[C@@H](CO)C(=O)N[C@@H](CC(=O)O)C(=O)N[C@H](C(=O)N[C@@H](CCSC)C(=O)N[C@@H](CCC(N)=O)C(=O)N[C@@H](CCC(N)=O)C(=O)N[C@@H](CSC1CC(=O)N(c2ccc3c(c2)C(=O)OC32c3ccc(N(C)C)cc3Oc3cc(N(C)C)ccc32)C1=O)C(N)=O)C(C)C)[C@@H](C)CC (stereo partly shown) [AKB (null)] (H-VQGNTDEAQEELAWKIEKMIWSDVMQQC(X1)-NH2; N-terminus assumed) | could not be detected | could not co-localize either GFP-RIα or RIIα | bound very poorly | could not co-localize either GFP-RIα or RIIα |  | 
2 | CC[C@H](C)[C@H](NC(=O)[C@H](CCCCN)NC(=O)[C@H](Cc1c[nH]c2ccccc12)NC(=O)[C@H](C)NC(=O)[C@H](CC(C)C)NC(=O)[C@H](CCC(=O)O)NC(=O)[C@H](CCC(=O)O)NC(=O)[C@@H](N)Cc1ccccc1)C(=O)N[C@@H](C)C(=O)N[C@@H](CCCCN)C(=O)N[C@@H](CCSC)C(=O)N[C@H](C(=O)N[C@@H](Cc1c[nH]c2ccccc12)C(=O)N[C@@H](CO)C(=O)N[C@@H](CC(=O)O)C(=O)N[C@H](C(=O)N[C@@H](Cc1ccccc1)C(=O)N[C@@H](CCC(N)=O)C(=O)N[C@@H](CCC(N)=O)C(=O)N[C@@H](CSC1CC(=O)N(c2ccc3c(c2)C(=O)OC32c3ccc(N(C)C)cc3Oc3cc(N(C)C)ccc32)C1=O)C(N)=O)C(C)C)[C@@H](C)CC (stereo partly shown) [PV-38] (H-FEELAWKIAKMIWSDVFQQC(X1)-NH2; N-terminus assumed) | substantially no binding; also recorded: further disrupting RIIα binding | GFP-RII was not localized | dramatically enhanced binding to RIα | only localized GFP-RI to the mitochondria | considerable reduction in affinity to RIIα | enhanced binding to RIα by a factor of ten
3 | CC[C@H](C)[C@H](NC(=O)[C@H](CCCCN)NC(=O)[C@H](Cc1c[nH]c2ccccc12)NC(=O)[C@H](CC(C)C)NC(=O)[C@H](CC(C)C)NC(=O)[C@H](CCC(=O)O)NC(=O)[C@H](CCC(=O)O)NC(=O)[C@H](CCC(N)=O)NC(=O)[C@H](C)NC(=O)[C@H](CCC(=O)O)NC(=O)[C@H](CC(=O)O)NC(=O)[C@@H](NC(=O)[C@H](CC(N)=O)NC(=O)CNC(=O)[C@H](CCC(N)=O)NC(=O)[C@@H](N)C(C)C)[C@@H](C)O)C(=O)N[C@@H](C)C(=O)N[C@@H](CCCCN)C(=O)N[C@@H](CCSC)C(=O)N[C@H](C(=O)N[C@H](C(=O)N[C@@H](CO)C(=O)N[C@@H](CC(=O)O)C(=O)N[C@H](C(=O)N[C@@H](CCSC)C(=O)N[C@@H](CCC(N)=O)C(=O)N[C@@H](CCC(N)=O)C(=O)N[C@@H](CSC1CC(=O)N(c2ccc3c(c2)C(=O)OC32c3ccc(N(C)C)cc3Oc3cc(N(C)C)ccc32)C1=O)C(N)=O)C(C)C)C(C)C)[C@@H](C)CC (stereo partly shown) [AKB (RII)] (H-VQGNTDEAQEELLWKIAKMIVSDVMQQC(X1)-NH2; N-terminus assumed) | did not affect binding to RIIα | recruited RII to the mitochondria | dramatically affected binding to RIα | incapable of recruiting GFP-RI |  | 
4 | CC[C@H](C)[C@H](NC(=O)[C@H](CCCCN)NC(=O)[C@H](Cc1c[nH]c2ccccc12)NC(=O)[C@H](C)NC(=O)[C@H](CC(C)C)NC(=O)[C@H](CCC(=O)O)NC(=O)[C@H](CCC(=O)O)NC(=O)[C@H](CCC(N)=O)NC(=O)[C@H](C)NC(=O)[C@H](CCC(=O)O)NC(=O)[C@H](CC(=O)O)NC(=O)[C@@H](NC(=O)[C@H](CC(N)=O)NC(=O)CNC(=O)[C@H](CCC(N)=O)NC(=O)[C@@H](N)C(C)C)[C@@H](C)O)C(=O)N[C@@H](C)C(=O)N[C@@H](CCCCN)C(=O)N[C@@H](CCSC)C(=O)N[C@H](C(=O)N[C@H](C(=O)N[C@@H](CO)C(=O)N[C@@H](CC(=O)O)C(=O)N[C@H](C(=O)N[C@@H](CCSC)C(=O)N[C@@H](CCC(N)=O)C(=O)N[C@@H](CCC(N)=O)C(=O)N[C@@H](CSC1CC(=O)N(c2ccc3c(c2)C(=O)OC32c3ccc(N(C)C)cc3Oc3cc(N(C)C)ccc32)C1=O)C(N)=O)C(C)C)C(C)C)[C@@H](C)CC (stereo partly shown) [AKB (dual)] (H-VQGNTDEAQEELAWKIAKMIVSDVMQQC(X1)-NH2; N-terminus assumed) |  | able to recruit both GFP-RIα and GFP-RIIα to the mitochondria |  | able to recruit both GFP-RIα and GFP-RIIα to the mitochondria |  | 
